The values below come from patent US9686984B2, “Macrocyclic picolinamides as fungicides” (DOW AGROSCIENCES LLC, priority 2014, dated 2017).

One assay deals with Zymoseptoria tritici. In words: Leaf Blotch of Wheat (SEPTTR) disease control on wheat seedlings. It is filed as in vivo. To be noted: for pest or weed control at 121.5 g/ha: Low Volume (121.5 g/H); for pest or weed control at 100 µg/mL: High Volume (100 ppm). The protocol: Example A: Evaluation of Fungicidal Activity: Leaf Blotch of Wheat (Mycosphaerella graminicola; Anamorph: Zymoseptoria tritici; Bayer code […]) Technical grades of materials were dissolved in acetone, which were then mixed with nine volumes of water containing 110 ppm Triton X-100. The fungicide solutions were applied onto wheat seedlings using an automated booth sprayer to run-off. All sprayed plants were allowed to air dry prior to further handling. All fungicides were evaluated using the aforementioned method for their activity vs. all target diseases, unless stated otherwise. Wheat leaf blotch and brown rust activity were also evaluated using track spray applications, in which case the fungicides were formulated as EC formulations, containing 0.1% Trycol 5941 in the spray solutions. Wheat plants (variety Yuma) were grown from seed in a greenhouse in 50% mineral soil/50% soil-less Metro mix until the first leaf was fully emerged, with 7-10 seedlings per pot. These plants were inoculated with an aqueous spore suspension of Septoria tritici either prior to or after fungicide treatments. After inoculation the plants were kept in 100% relative humidity (one day in a dark dew chamber followed by two to three days in a lighted dew chamber at 20° C.) to permit spores to germinate and infect the leaf. The plants were then transferred to a greenhouse set at 20° C. for disease to develop. When disease symptoms were fully expressed on the 1st leaves of untreated plants, infection levels were assessed on a scale of 0 to 100 percent disease severity. Percent disease control was calculated using the ratio of disease severity on treated plants relative to untreated plants.

The next assay has as its system Puccinia triticina. The assay can be described thus: Wheat Brown Rust (PUCCRT) disease control on wheat seedlings. It is filed as in vivo. As to conditions: for pest or weed control at 121.5 g/ha: Low Volume (121.5 g/H); for pest or weed control at 100 µg/mL: High Volume (100 ppm). How it is done:
Technical grades of materials were dissolved in acetone, which were then mixed with nine volumes of water containing 110 ppm Triton X-100. The fungicide solutions were applied onto wheat seedlings using an automated booth sprayer to run-off. All sprayed plants were allowed to air dry prior to further handling. All fungicides were evaluated using the aforementioned method for their activity vs. all target diseases, unless stated otherwise. Wheat leaf blotch and brown rust activity were also evaluated using track spray applications, in which case the fungicides were formulated as EC formulations, containing 0.1% Trycol 5941 in the spray solutions. Wheat plants (variety Yuma) were grown from seed in a greenhouse in 50% mineral soil/50% soil-less Metro mix until the first leaf was fully emerged, with 7-10 seedlings per pot. These plants were inoculated with an aqueous spore suspension of Septoria tritici either prior to or after fungicide treatments. After inoculation the plants were kept in 100% relative humidity (one day in a dark dew chamber followed by two to three days in a lighted dew chamber at 20° C.) to permit spores to germinate and infect the leaf. The plants were then transferred to a greenhouse set at 20° C. for disease to develop. When disease symptoms were fully expressed on the 1st leaves of untreated plants, infection levels were assessed on a scale of 0 to 100 percent disease severity. Percent disease control was calculated using the ratio of disease severity on treated plants relative to untreated plants. Example B: Evaluation of Fungicidal Activity: Wheat Brown Rust (Puccinia triticina; Synonym: Puccinia recondita f. sp. tritici; Bayer code PUCCRT) Wheat plants (variety Yuma) were grown from seed in a greenhouse in 50% mineral soil/50% soil-less Metro mix until the first leaf was fully emerged, with 7-10 seedlings per pot. These plants were inoculated with an aqueous spore suspension of Puccinia triticina either prior to or after fungicide treatments. After inoculation the plants were kept in a dark dew room at 22° C. with 100% relative humidity overnight to permit spores to germinate and infect the leaf. The plants were then transferred to a greenhouse set at 24° C. for disease to develop. Fungicide formulation, application and disease assessment followed the procedures as described in the Example A.

The mark [1] stands for this setting: 24 h, 1 Day Protectant, read-out: SEPTTR disease control, 1 DP.
Where [2] appears, read: 72 h, 3 Day Curative, read-out: SEPTTR disease control, 3 DC.
Where [3] appears, read: 24 h, 1 Day Protectant, read-out: PUCCRT disease control, 1 DP.
[4] abbreviates: 72 h, 3 Day Curative, read-out: PUCCRT disease control, 3 DC.

The structures appear in SMILES notation. Like-named read-outs stand apart in the source and are kept apart here.

On to `COc1ccnc(C(=O)N[C@H]2CCO[C@H](CCc3ccccc3)[C@@H](Cc3ccc(F)cc3)[C@H](C)OC2=O)c1OCOC(C)=O` [Compound 24, ((2-(((2R,3S,4S,7S)-3-(4-fluorobenzyl)-4-methyl-6-oxo-2-phenethyl-1,5-dioxonan-7-yl)carbamoyl)-4-methoxypyridin-3-yl)oxy)methyl acetate], for which the pest or weed control at 121.5 g/ha in the assay with Zymoseptoria tritici (setting [1]), in the assay with Zymoseptoria tritici (setting [2]), in the assay on Puccinia triticina (setting [3]) and in the assay with Puccinia triticina (setting [4]) was > 70% throughout.

Take `COCC[C@H]1OCC[C@H](NC(=O)c2nccc(OC)c2OCOC(C)=O)C(=O)O[C@@H](C)[C@@H]1Cc1ccc(F)cc1` [Compound 25]: the pest or weed control at 121.5 g/ha in the assay on Zymoseptoria tritici (setting [1]) was < 70%; with Zymoseptoria tritici (setting [2]) it was < 70%; in the assay with Puccinia triticina (setting [3]) it was > 70%; in the assay on Puccinia triticina (setting [4]) it was > 70%.

For the molecule `COc1ccnc(C(=O)N[C@H]2CCOC[C@@H](Cc3ccccc3-c3ccccc3)[C@H](C)OC2=O)c1OCOC(C)=O` [Compound 28], the pest or weed control at 121.5 g/ha in the assay on Zymoseptoria tritici (setting [1]), in the assay with Zymoseptoria tritici (setting [2]), in the assay with Puccinia triticina (setting [3]) and with Puccinia triticina (setting [4]) was > 70% each time.

On to `COc1ccnc(C(=O)N[C@H]2CCOC[C@@H](CCC(C)C)[C@H](C)OC2=O)c1OCOC(C)=O` [Compound 30], for which the pest or weed control at 121.5 g/ha in the assay on Zymoseptoria tritici (setting [1]), with Zymoseptoria tritici (setting [2]), in the assay on Puccinia triticina (setting [3]) and in the assay with Puccinia triticina (setting [4]) was > 70% throughout.

For `CCCC[C@H]1[C@H](C)OC(=O)[C@@H](NC(=O)c2nccc(OC)c2OCOC(C)=O)CCO[C@@H]1CCc1ccccc1` [Compound 31], the pest or weed control at 121.5 g/ha in the assay with Zymoseptoria tritici (setting [1]), with Zymoseptoria tritici (setting [2]), in the assay on Puccinia triticina (setting [3]) and with Puccinia triticina (setting [4]) was > 70% each time.

For `CCCC[C@H]1[C@H](C)OC(=O)[C@@H](NC(=O)c2nccc(OC)c2OCOC(C)=O)CCO[C@@H]1COC(=O)C(C)C` [Compound 32], the pest or weed control at 121.5 g/ha in the assay on Zymoseptoria tritici (setting [1]), in the assay with Zymoseptoria tritici (setting [2]), with Puccinia triticina (setting [3]) and with Puccinia triticina (setting [4]) was > 70% throughout.

As to `CCCC[C@H]1[C@H](C)OC(=O)[C@@H](NC(=O)c2nccc(OC)c2OCOC(C)=O)CCO[C@@H]1CC` [Compound 34], the pest or weed control at 121.5 g/ha in the assay with Zymoseptoria tritici (setting [1]) is < 70%; in the assay on Zymoseptoria tritici (setting [2]) it was < 70%; with Puccinia triticina (setting [3]), > 70%; in the assay on Puccinia triticina (setting [4]), > 70%.

As to `CCCC[C@H]1[C@H](C)OC(=O)[C@@H](NC(=O)c2nccc(OC)c2OCOC(C)=O)CCO[C@@H]1COc1ccccc1` [Compound 35], the pest or weed control at 121.5 g/ha in the assay with Zymoseptoria tritici (setting [1]), with Zymoseptoria tritici (setting [2]), with Puccinia triticina (setting [3]) and in the assay with Puccinia triticina (setting [4]) was > 70% in each case.

Take `COc1ccnc(C(=O)N[C@H]2CCOC[C@@H](Cc3ccccc3)[C@H](C)OC2=O)c1OCOC(=O)C(C)C` [Compound 36]: the pest or weed control at 121.5 g/ha in the assay on Zymoseptoria tritici (setting [1]) was > 70%; in the assay with Zymoseptoria tritici (setting [2]) it was < 70%; in the assay with Puccinia triticina (setting [3]) it was > 70%; in the assay with Puccinia triticina (setting [4]), > 70%.

Regarding `COc1ccnc(C(=O)N[C@H]2CCO[C@H](Cc3ccccc3)[C@@H](Cc3ccccc3)[C@H](C)OC2=O)c1OCOC(=O)C(C)C` [Compound 37, ((2-(((2R,3S,4S,7S)-2,3-dibenzyl-4-methyl-6-oxo-1,5-dioxonan-7-yl)carbamoyl)-4-methoxypyridin-3-yl)oxy)methyl isobutyrate], the pest or weed control at 121.5 g/ha in the assay on Zymoseptoria tritici (setting [1]), with Zymoseptoria tritici (setting [2]), with Puccinia triticina (setting [3]) and in the assay on Puccinia triticina (setting [4]) was > 70% throughout.

Take `COc1ccnc(C(=O)N[C@H]2CCO[C@H](CCc3ccccc3)[C@@H](Cc3ccc(F)cc3)[C@H](C)OC2=O)c1OCOC(=O)C(C)C` [Compound 38]: the pest or weed control at 121.5 g/ha in the assay with Zymoseptoria tritici (setting [1]), in the assay with Zymoseptoria tritici (setting [2]), in the assay with Puccinia triticina (setting [3]) and in the assay on Puccinia triticina (setting [4]) was > 70% in each case.

As for `CCCC[C@H]1[C@H](C)OC(=O)[C@@H](NC(=O)c2nccc(OC)c2OCOC(=O)C(C)C)CCO[C@@H]1COc1ccccc1` [Compound 41], the pest or weed control at 121.5 g/ha in the assay on Zymoseptoria tritici (setting [1]), with Zymoseptoria tritici (setting [2]), in the assay on Puccinia triticina (setting [3]) and with Puccinia triticina (setting [4]) was > 70% in each case.

Take `CCOCC(=O)OCOc1c(OC)ccnc1C(=O)N[C@H]1CCOC[C@@H](Cc2ccccc2)[C@H](C)OC1=O` [Compound 42, ((2-(((3R,4S,7S)-3-benzyl-4-methyl-6-oxo-1,5-dioxonan-7-yl)carbamoyl)-4-methoxypyridin-3-yl)oxy)methyl 2-ethoxyacetate]: the pest or weed control at 121.5 g/ha in the assay with Zymoseptoria tritici (setting [1]), in the assay on Zymoseptoria tritici (setting [2]), in the assay on Puccinia triticina (setting [3]) and with Puccinia triticina (setting [4]) was > 70% throughout.

Regarding `CCOCC(=O)OCOc1c(OC)ccnc1C(=O)N[C@H]1CCO[C@H](Cc2ccccc2)[C@@H](Cc2ccccc2)[C@H](C)OC1=O` [Compound 44], the pest or weed control at 121.5 g/ha in the assay with Zymoseptoria tritici (setting [1]), in the assay with Zymoseptoria tritici (setting [2]), in the assay with Puccinia triticina (setting [3]) and in the assay with Puccinia triticina (setting [4]) was > 70% each time.

Consider `CCCC[C@H]1[C@H](C)OC(=O)[C@@H](NC(=O)c2nccc(OC)c2OCOC(=O)COCC)CCO[C@@H]1CCc1ccccc1` [Compound 45], for which the pest or weed control at 121.5 g/ha in the assay on Zymoseptoria tritici (setting [1]), in the assay with Zymoseptoria tritici (setting [2]), in the assay on Puccinia triticina (setting [3]) and in the assay with Puccinia triticina (setting [4]) was > 70% each time.

On to `CCCC[C@H]1[C@H](C)OC(=O)[C@@H](NC(=O)c2nccc(OC)c2OCOC(=O)COCC)CCO[C@@H]1CC` [Compound 46], for which the pest or weed control at 121.5 g/ha in the assay with Zymoseptoria tritici (setting [1]) is > 70%; with Zymoseptoria tritici (setting [2]) it was < 70%; with Puccinia triticina (setting [3]), > 70%; in the assay on Puccinia triticina (setting [4]), > 70%.

On to `CCCC[C@H]1[C@H](C)OC(=O)[C@@H](NC(=O)c2nccc(OC)c2OCOC(=O)COCC)CCO[C@@H]1COc1ccccc1` [Compound 47], for which the pest or weed control at 121.5 g/ha in the assay on Zymoseptoria tritici (setting [1]), in the assay on Zymoseptoria tritici (setting [2]), in the assay on Puccinia triticina (setting [3]) and with Puccinia triticina (setting [4]) was > 70% throughout.

On to `CCOCC(=O)Oc1c(OC)ccnc1C(=O)N[C@H]1CCOC[C@@H](Cc2ccccc2)[C@H](C)OC1=O` [Compound 48, 2-(((3R,4S,7S)-3-benzyl-4-methyl-6-oxo-1,5-dioxonan-7-yl)carbamoyl)-4-methoxypyridin-3-yl 2-ethoxyacetate], for which the pest or weed control at 121.5 g/ha in the assay with Zymoseptoria tritici (setting [1]) is < 70%; with Zymoseptoria tritici (setting [2]) it was < 70%; in the assay on Puccinia triticina (setting [3]), > 70%; with Puccinia triticina (setting [4]) it was > 70%.

Take `CC[C@H]1OCC[C@H](NC(=O)c2nccc(OC)c2O)C(=O)O[C@@H](C)[C@@H]1Cc1ccc(F)cc1` [Compound 55]: the pest or weed control at 100 µg/mL in the assay with Zymoseptoria tritici (setting [1]), with Zymoseptoria tritici (setting [2]), with Puccinia triticina (setting [3]) and with Puccinia triticina (setting [4]) was > 70% each time.
